Counter-ions that a name gives are not always drawn.
Assays:
human ATP8B1 = target: T1, human ATP8B1 (Homo sapiens, UniProt O43520); experiment: Phospholipid-stimulated ATPase activity of full-length ATP8B1; assay type: biochemical
T1 sequence (O43520 1-1251): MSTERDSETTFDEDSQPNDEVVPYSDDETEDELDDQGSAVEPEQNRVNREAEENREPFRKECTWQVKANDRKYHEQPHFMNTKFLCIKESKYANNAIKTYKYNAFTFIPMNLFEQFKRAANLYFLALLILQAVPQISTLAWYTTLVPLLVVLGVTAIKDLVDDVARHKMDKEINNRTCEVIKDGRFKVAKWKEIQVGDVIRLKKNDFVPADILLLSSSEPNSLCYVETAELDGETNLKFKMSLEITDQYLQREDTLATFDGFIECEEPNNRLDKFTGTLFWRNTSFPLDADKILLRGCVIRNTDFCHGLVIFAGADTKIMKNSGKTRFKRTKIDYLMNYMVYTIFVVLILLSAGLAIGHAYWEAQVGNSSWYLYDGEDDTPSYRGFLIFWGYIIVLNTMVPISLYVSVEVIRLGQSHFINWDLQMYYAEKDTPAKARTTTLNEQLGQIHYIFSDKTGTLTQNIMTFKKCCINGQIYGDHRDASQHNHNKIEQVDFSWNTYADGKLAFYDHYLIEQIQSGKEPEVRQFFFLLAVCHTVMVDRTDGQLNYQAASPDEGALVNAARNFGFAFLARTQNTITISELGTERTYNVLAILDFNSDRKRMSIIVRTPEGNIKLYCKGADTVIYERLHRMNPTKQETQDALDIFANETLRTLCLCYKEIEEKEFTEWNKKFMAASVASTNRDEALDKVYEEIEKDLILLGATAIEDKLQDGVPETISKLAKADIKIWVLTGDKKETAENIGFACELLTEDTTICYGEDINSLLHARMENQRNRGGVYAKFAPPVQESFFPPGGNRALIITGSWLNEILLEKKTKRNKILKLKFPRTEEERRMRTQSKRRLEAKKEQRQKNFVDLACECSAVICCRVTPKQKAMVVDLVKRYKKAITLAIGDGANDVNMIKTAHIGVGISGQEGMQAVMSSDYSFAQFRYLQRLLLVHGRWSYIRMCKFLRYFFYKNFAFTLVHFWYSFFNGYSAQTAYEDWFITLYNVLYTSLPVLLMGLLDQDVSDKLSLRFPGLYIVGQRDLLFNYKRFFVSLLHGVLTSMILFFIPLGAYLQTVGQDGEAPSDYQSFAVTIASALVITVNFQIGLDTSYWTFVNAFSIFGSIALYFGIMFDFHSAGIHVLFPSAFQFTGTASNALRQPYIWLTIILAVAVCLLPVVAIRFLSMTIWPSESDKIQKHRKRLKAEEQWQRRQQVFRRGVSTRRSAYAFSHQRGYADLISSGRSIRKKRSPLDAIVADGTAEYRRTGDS
Procedure: FIG. 8E is a bar graph showing ATPase activity of ATP8B1 in presence of various lipids (300 µM).
FIG. 8F is a graph showing phospholipid concentration-dependent ATPase activity of ATP8B1. Graph representing data points of three independent experiments, values are mean±SD and fitted by a non-linear dose-dependent curve.
ATP8B1 deletion may affect PIP2 translocation due to changes in membrane properties or by indirectly influencing the activity of other proteins involved in lipid trafficking. To determine if ATP8B1 can directly flip PIP2, a cell-free system was reconstituted. The GST-tagged human ATP8B1 protein was cloned in a baculovirus, followed by transduction of insect Sf9 cells, and expression was confirmed by western blot using anti-GST antibody.
(§1) Next, we utilized reconstituted ATP8B1-proteoliposomes with NBD-labeled phospholipids and sodium dithionite quenching assay to measure phospholipid flip (FIG. 8G), as described before. A marked decrease in the fluorescence intensity of NBD-PIP2 was observed following dithionite quenching of ATP8B1 containing proteoliposomes vs. control liposomes, with ˜12% NBD-PIP2 flip in 5 min, ˜22% NBD-PIP2 flip in 30 min, and ˜27% NBD-PIP2 flipped in 60 min (FIG. 8H, 8I).

GsdmD = target: T2, GsdmD (Homo sapiens, UniProt P57764); conditions: cited from earlier work
T2 sequence (P57764 1-484): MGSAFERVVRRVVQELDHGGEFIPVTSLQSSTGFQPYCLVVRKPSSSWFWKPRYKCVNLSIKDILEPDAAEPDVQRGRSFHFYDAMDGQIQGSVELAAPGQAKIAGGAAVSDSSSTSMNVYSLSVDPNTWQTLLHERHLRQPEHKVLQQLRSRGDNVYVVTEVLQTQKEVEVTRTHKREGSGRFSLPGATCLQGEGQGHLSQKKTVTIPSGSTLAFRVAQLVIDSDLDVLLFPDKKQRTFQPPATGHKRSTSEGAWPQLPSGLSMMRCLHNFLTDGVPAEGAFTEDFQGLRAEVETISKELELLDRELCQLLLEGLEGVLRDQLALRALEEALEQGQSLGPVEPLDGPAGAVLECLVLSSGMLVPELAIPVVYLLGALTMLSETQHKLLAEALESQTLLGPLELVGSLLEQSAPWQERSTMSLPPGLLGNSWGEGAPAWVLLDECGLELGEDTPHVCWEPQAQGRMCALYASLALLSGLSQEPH

ATP8B1 proteoliposomes = target: T3, ATP8B1 proteoliposomes (Homo sapiens, UniProt O43520); experiment: NBD-phospholipid flip in ATP8B1 proteoliposomes, sodium dithionite quenching assay; assay type: biochemical; conditions: proteoliposomes vs. empty liposomes
T3 construct: The ATPase activity of full-length ATP8B1 was determined in the presence of various phospholipids; GST; made in house; host or cells: Sf9 insect cells (baculovirus)
T3 sequence (O43520 1-1251): T1 sequence (O43520 1-1251)
Procedure: FIG. 8G is a schematic diagram for PIP2 flip assay in ATP8B1 proteoliposomes vs. empty liposomes.
FIG. 8H is a graph showing sodium dithionite quenching of NBD-PIP2 on the outer side of the proteoliposomes vs. empty liposomes over 10 min, Triton-X-100 was used to quench all the remaining NBD-PIP2.
FIG. 8I is a graph showing the percentage PIP2 flipped over time in proteoliposomes vs. empty liposomes±sodium dithionite, ±Triton-X-100, data are from 3 independent experiments, values are mean±SD, **** show p<0.0001 by t-test.
FIG. 8J is a graph showing sodium dithionite quenching of NBD-PE on the outer side of the proteoliposomes vs. empty liposomes over 10 min, Triton-X-100 was used to quench the remaining inner leaflet NBD-PE.
FIG. 8K is a bar graph showing the percentage PE flip over time in proteoliposomes vs. empty liposomes±Sodium dithionite, ±Triton-X-100. […]
as §1

[1] = tested on: HepG2 cells (WT or ATP8b1−/−); experiment: Confocal-microscopy-based NBD-phospholipid flip assay with BSA back-exchange; assay type: cell-based, human; conditions: after BSA wash, up to 60 min
Procedure: FIG. 8A is an image of WT or ATP8b1^−/− HepG2 cells pre-incubated with phospholipase inhibitors at 20° C. were supplemented with NBD-PIP2 followed by incubation for up to 60 min to allow lipid internalization. Cells were subjected to back-exchange with BSA, followed by TBSS wash, and visualization by confocal laser scanning microscopy. FIRE look-up table (ImageJ) was used to highlight intensity variations in PIP2 flip. Images are representative of three independent experiments. Scale bar: 20 μm.
FIG. 8B is an image of WT or ATP8b1^−/− HepG2 cells pre-incubated with phospholipase inhibitors at 20° C. were supplemented with NBD-PE followed by incubation for up to 60 min to allow lipid internalization. Cells were subjected to back-exchange with BSA, followed by TBSS wash, and visualization by confocal laser scanning microscopy. FIRE look-up table (ImageJ) was used to highlight intensity variations in PIP2 flip. Images are representative of three independent experiments. Scale bar: 20 μm.
FIG. 8C is a graph showing quantification of flipped NBD-PIP2 in WT and ATP8b1^−/− HePG2 cells (N=25 cells, values are mean±SD; **** show p<0.0001 by t-test.
FIG. 8D is a graph showing quantification of flipped NBD-PE in WT and ATP8b1^−/− HePG2 cells (N=25 cells, values are mean±SD; **** show p<0.0001 by t-test. […]

For `CCCCCCCC/C=C\CCCCCCCC(=O)OC[C@H](COP(=O)(O)O[C@@H]1[C@H](O)[C@H](O)[C@@H](OP(=O)(O)O)[C@H](OP(=O)(O)O)[C@H]1O)OC(=O)CCCCCCC/C=C\CCCCCCCC` [PIP2, phosphatidylinositol-4,5-bisphosphate], the “ATPase activity of full-length ATP8B1” value (human ATP8B1; 300 μM lipid) was “notable increase in ATPase activity”.

In the case of `COC(=O)/C=C/C(=O)OC` [dimethyl fumarate], the “effect on GsdmD” value (GsdmD) is listed as “promotes succination of GsdmD”.

With NBD-PE the “NBD-lipid flip” value (ATP8B1 proteoliposomes) was “No significant changes” and the “flip of NBD-lipid in ATP8B1−/− vs. WT cells” value [1] was “no differences”.

In the case of phosphatidylcholine [PC], the “EC50 of stimulated activity of ATP8B1 relative to PIP2” value (human ATP8B1; higher than PIP2) is reported as 1.75 fold.

From US20250340885A1, “COMPOSITIONS AND METHODS FOR MODULATING CONDITIONS ASSOCIATED WITH ALTERED ATP8B1 FUNCTION” (CLEVELAND STATE UNIVERSITY, priority 2024, published 2025)
